In US7115718B2, “Haptens, immunogens, antibodies and conjugates to 2-oxo-3-hydroxy-LSD” (Randox :abpratproes :o, oted, priority 2001, dated 2006):

Experiments:
[1] = tested on: antibodies of U.S. Pat. No. 6,207,396 B1; details: antibodies specific to d-LSD; cited from earlier work
[2] = tested on: antiserum raised to immunogen A (hapten A-BSA); experiment: Competitive ELISA microtiter plate assay for 2-oxo-3-hydroxy-LSD, cross-reactivity with LSD and its metabolites; type: binding, sheep; details: for % CR, percentage cross-reactivity based on specificity to 2-oxo-3-hydroxy LSD: % CR = IC50 2-oxo / IC50 LSD x 100; for % B/B0: B0 = absorbance at 0 ng/ml; for A450: absorbance at 450 nm, conjugate A (hapten A-HRP)
Protocol: An aqueous solution of the immunogen prepared in Example 5 was formulated with Freund's Complete Adjuvant (FCA) to form an emulsion consisting of 4 mg/ml inmmunogen in 50% (v/v) FCA. Three sheep were immunized with this emulsion (1° immunisation), 0.25 ml being subcutaneously -injected at each of four sites in the flank of each animal. The next immunisation (Boost 1) contained 2 mg/ml immunogen and subsequent immunizations (boosts 2 to 25) contained 1 mg/ml. All boosts were emulsified in 50% (v/v) Freund's Incomplete Adjuvant (FIA) and administered in the same manner as the 1° immunisation at monthly intervals for 1 year. Blood sampling took place 7 to 14 days after each boost. Each sample was processed to produce antiserum, which was further purified by caprylic acid and ammonium sulfate precipitation to yield an immunoglobulin G (IgG) fraction. The IgG fraction was evaluated by competitive ELISA microtitre plate assay, as described in Example 14 below.
The wells of an enhanced binding 96 well polystyrene ricrotiter plate were coated with the IgG fraction of the antiserum raised to immunogen A (Example 5) of the present invention, diluted in 10 mM Tris, pH8.5 (125 μl/well). The appropriate antibody coating dilution was determined using standard ELISA chequerboard techniques. The plate was incubated for 2 hours at 37° C., washed 4 times with Tris buffered saline containing Tween 20 (TBST) and tapped dry. Standard solutions of 2-oxo-3-hydroxy-LSD were prepared in TBST at 0, 10, 50, 100, 250, 500, 1000 and 2000 ng/ml and 50 μl of each was added to the appropriate wells (FIG. 4). The conjugate (detection reagent) of the present invention was diluted in Tris buffer (pH7.2) containing EDTA, D-mannitol, sucrose, thimerosal and BSA, the appropriate dilution being determined by standard ELISA chequerboard techniques, and 75 μl was added to the appropriate wells (FIG. 4). The plate was incubated at 37° C. for 2 hours. Excess unbound conjugate was removed by washing 6 times over a 10 minute period with TBST.
125 μl of tetramethylbenzidine (TMB) substrate solution was added to each well of the plate, which was then incubated for 15 to 20 minutes in the dark at room temperature. The reaction was terminated by addition of 125 μl 0.2M H2SO4 to each well. The absorbance was then measured at 450 nm using a microtiter plate reader.
Standard solutions of LSD and its metabolites were prepared in TBST at 0, 10.0, 50.0, 100.0, 250.0, 500.0, 1000 and 2000 ng/ml. Employing each series of standards in the present competitive ELISA, calibration curves were generated and these were used to determine the cross-reactivity of the immunoassays with LSD and its metabolites, cross-reactivity being calculated according to the following formula: % CR=IC502-oxo/IC50LSD×100 where % CR is the percentage cross-reactivity, IC502-oxo is the concentration of 2-oxo-3-hydroxy-LSD that causes 50% displacement of signal and IC50LSD is the concentration of LSD or LSD metabolite that causes 50% displacement of signal.

[3] = tested on: antibodies generated to immunogen 8; details: cited from earlier work
[4] = human urine; cited from earlier work
[5] = tested on: antibodies generated to immunogen 4; details: cited from earlier work
[6] = in vivo; cited from earlier work
[7] = in vivo; cited from earlier work; remark: listed apart in the source
[8] = tested on: antibodies obtained in EP 1 148 339 A2; details: when compared to 2-oxo-3-hydroxy-LSD; cited from earlier work

Compound | cross-reactivity [1] [%] | specificity / cross-reactivity of the assay, in words [2] | % CR, percentage cross-reactivity based on specificity to 2-oxo-3-hydroxy LSD [2] [%] | % B/B0 ([2]; standard 10 ng/ml) [%] | A450 ([2]; standard 10 ng/ml) | % B/B0 ([2]; standard 50 ng/ml) [%] | A450 ([2]; standard 50 ng/ml) | % B/B0 ([2]; standard 100 ng/ml) [%] | A450 ([2]; standard 100 ng/ml) | % B/B0 ([2]; standard 250 ng/ml) [%] | A450 ([2]; standard 250 ng/ml) | % B/B0 ([2]; standard 500 ng/ml) [%] | A450 ([2]; standard 500 ng/ml) | % B/B0 ([2]; standard 1000 ng/ml) [%] | A450 ([2]; standard 1000 ng/ml) | % B/B0 ([2]; standard 2000 ng/ml) [%] | A450 ([2]; standard 2000 ng/ml) | cross-reactivity [3] [%] | cross-reactivity [5] [%] | cross-reactivity [8] | also measured
CCN(CC)C(=O)[C@@H]1C=C2c3cccc4c3C(O)(C[C@H]2N(C)C1)C(=O)N4 (stereo partly drawn) [2-Oxo-3-Hydroxy-LSD, 2-oxo-3-hydroxy-LSD] | 1.82 | highly specific | 100 | 78.47 | 1.396 | 59.36 | 1.056 | 50.08 | 0.891 | 37.10 | 0.660 | 28.89 | 0.514 | 21.98 | 0.391 | 17.88 | 0.318 | < 20 | 50 | – | average concentration relative to that of LSD [4]: 20 times
CCN(CC)C(=O)[C@@H]1C=C2c3cccc4[nH]cc(c34)C[C@H]2N(C)C1 [LSD, Lysergic acid diethylamide] | – | very low levels of cross-reactivity | <5 | 99.28 | 1.792 | 98.45 | 1.777 | 98.34 | 1.775 | 96.40 | 1.740 | 91.58 | 1.653 | 87.09 | 1.572 | 80.50 | 1.453 | 100 | 100 | 74.9–84.4% | potency as hallucinogen relative to mescaline [6]: 4500–9275 times; potency as hallucinogen relative to psilocybin [6]: 10–150 times; excreted unchanged in urine [7]: less than 1%
CCN(CC)C(=O)[C@@H]1C=C2c3cccc4[nH]cc(c34)C[C@H]2NC1 [Nor LSD, nor-LSD] | – | very low levels of cross-reactivity | <5 | 99.0 | 1.772 | 98.7 | 1.767 | 98.5 | 1.763 | 97.1 | 1.738 | 94.2 | 1.686 | 91.5 | 1.638 | 86.7 | 1.552 | 40 | 20 | 1.8–4.6% | –
CCN(CC)C(=O)[C@H]1C=C2c3cccc4[nH]cc(c34)C[C@H]2N(C)C1 [d-iso-LSD] | 0.04 | – | – | – | – | – | – | – | – | – | – | – | – | – | – | – | – | – | – | – | hallucinogenic activity, in words [6]: inactive
